The values that follow come from patent US8722659B2, “Quinazolinedione derivatives, preparation thereof and various therapeutic uses thereof” (Sanofi, priority 2009, dated 2014).

Test [1] has as its target T1, Human PDE7 (Homo sapiens, UniProt Q13946).
T1 construct: Human PDE7 was partially purified from the cell line HUT-78; endogenous in cells; host or cells: HUT-78 (human T-cell line), partially purified enzyme preparation
The test can be described thus: PDE7 enzymatic test ([3H]-cAMP hydrolysis, TLC on PEI cellulose). Conditions: human PDE7 partially purified from HUT-78; cAMP concentration about 4 times the Km; 10 μM rolipram present. It is filed as biochemical. On the procedure: (§1) The capacity of the compounds of formula (I) to inhibit PDE7 is measured by means of an enzymatic test based on separating radioactive cAMP (substrate of PDE7) from radioactive 5′-AMP (product of the enzymatic reaction) by thin-layer chromatography on polyethyleneimine (PEI) cellulose, after stopping the enzymatic reaction. The 5′-AMP is quantitatively extracted from the PEI cellulose and its radioactivity is measured using a liquid scintillation counter.
The inhibitory activity of the compounds of formula (I) on PDE7 is represented by the inhibition constant IC50, defined as the concentration of test compound (inhibitor) in the trial that can reduce the enzymatic activity of PDE7 by 50%. The lower the IC50 values, the greater the inhibitory power of the compounds.
Human PDE7 was partially purified from the cell line HUT-78 by following a method similar to that described by Bloom and Beavo (Proc. Natl. Acad. Sci. USA, (1996) 93, 14188-14192). The enzyme preparation obtained is stored at −80° C. in a buffer containing 20 mM of Tris-HCl (pH 7.0), 5 mM of MgCl2, 4 mM of EDTA, 1 mM of dithiothreitol and 20% glycerol. […] The Michaelis constant (Km) of PDE7 for cAMP, measured using the radiochemical test described hereinbelow, is 21 nM.
The compounds of formula (I) to be tested as PDE7 inhibitors are dissolved in DMSO to a concentration of 10 mM. These solutions are then serially diluted in DMSO to obtain solutions of desired concentrations. These solutions are then diluted 20-fold in the test buffer to give solutions containing 5% DMSO. These solutions are finally diluted 5-fold in the enzymatic test.
The test is performed in 1.5-ml Eppendorf tubes containing 40 mM of Tris-HCl (pH 7.5), 15 mM of MgCl2, 1 mM of EGTA, 0.5 mg/ml of bovine serum albumin, 0.25 μCi of [^3H]-cAMP (corresponding to a cAMP concentration of between 60 and 100 nM), 10 μM of rolipram and PDE7 in a final volume of 100 μl. The test is performed in the absence (control sample) or in the presence (treated sample) of compounds tested as PDE7 inhibitors. The final concentration of DMSO in the test is […]. The reaction is initiated by adding enzyme and the samples are maintained at room temperature for 30 minutes. The enzymatic dilution is adjusted so as to obtain a degree of conversion of 10% to 15%. The enzymatic reaction is stopped by immersing the stoppered Eppendorf tubes in a water bath at 100° C. for 3 minutes. Blanks (reaction stopped immediately after adding the enzyme) are included in each experiment. The samples are then centrifuged at 10 000×g for 1 minute and a 10 μl aliquot portion of the supernatant is deposited 2 cm from the bottom edge of a sheet of PEI cellulose onto which 10 μg of cAMP and 10 μg of 5′-AMP have previously been deposited. To facilitate the migration and the subsequent cutting of the PEI cellulose strips containing the 5′-AMP, 18 migration paths 1 cm wide are delimited per plate by scraping the cellulose with a spatula over a width of 1 mm. The plates are developed over their entire length with a 0.30 M solution of LiCl in water by ascending chromatography. The 5′-AMP (Rf=0.20) and the cAMP (Rf=0.47) are visualized under UV light at 254 nm. The PEI cellulose bands containing the 5′-AMP are cut out and the nucleotide is extracted quantitatively into counting flasks with 2 ml of a solution containing 16 M of formic acid and 2 M of ammonium formate in water (rotary stirring for 15 minutes). After adding 10 ml of scintillation liquid (OptiPhase HiSafe 3 from Perkin-Elmer/Wallac), the radioactivity is counted using a liquid scintillation counter (Perkin-Elmer/Wallac model 1414). Each test is performed in duplicate. The radioactivity specifically associated with the 5′-AMP formed in the enzymatic reaction is obtained by subtracting the mean value of the blanks from the mean value of the controls (or of the treated samples). […]

The subject of test [2] is CLL-PBMCs. The note with it: PBMC of chronic lymphocytic leukaemia patients; cited from earlier work.
Test [3] concerns PBMCs of normal individuals. The note with it: cited from earlier work.
In test [4] the test system is PDE8. The test can be described thus: PDE8 enzymatic test equivalent to that described for PDE7. The note with it: at 0.1 μM. Type of test: biochemical. On the procedure: as §1
The test is performed in 1.5-ml Eppendorf tubes containing 40 mM of Tris-HCl (pH 7.5), 15 mM of MgCl2, 1 mM of EGTA, 0.5 mg/ml of bovine serum albumin, 0.25 μCi of [^3H]-cAMP (corresponding to a cAMP concentration of between 60 and 100 nM), 10 μM of rolipram and PDE7 in a final volume of 100 μl. The test is performed in the absence (control sample) or in the presence (treated sample) of compounds tested as PDE7 inhibitors. The final concentration of DMSO in the test is 2%. […] The PEI cellulose bands containing the 5′-AMP are cut out and the nucleotide is extracted quantitatively into counting flasks with 2 ml of a solution containing 16 M of formic acid and 2 M of ammonium formate in water (rotary stirring for 15 minutes). After adding 10 ml of scintillation liquid (OptiPhase HiSafe 3 from Perkin-Elmer/Wallac), the radioactivity is counted using a liquid scintillation counter (Perkin-Elmer/Wallac model 1414). […]

T1 sequence (Q13946 whole entry): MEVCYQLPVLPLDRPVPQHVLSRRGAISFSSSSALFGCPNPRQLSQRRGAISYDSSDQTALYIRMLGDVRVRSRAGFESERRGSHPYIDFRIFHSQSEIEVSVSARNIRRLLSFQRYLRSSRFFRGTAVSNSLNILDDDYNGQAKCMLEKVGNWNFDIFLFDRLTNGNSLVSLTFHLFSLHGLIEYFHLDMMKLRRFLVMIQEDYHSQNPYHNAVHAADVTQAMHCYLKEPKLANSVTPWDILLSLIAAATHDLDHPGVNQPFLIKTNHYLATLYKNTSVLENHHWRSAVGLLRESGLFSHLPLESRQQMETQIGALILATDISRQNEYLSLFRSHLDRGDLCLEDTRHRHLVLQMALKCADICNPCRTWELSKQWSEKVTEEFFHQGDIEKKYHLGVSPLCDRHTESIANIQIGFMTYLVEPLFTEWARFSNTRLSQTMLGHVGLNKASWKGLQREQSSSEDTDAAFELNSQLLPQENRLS

Usually IC50 stands for the concentration needed to halve the response being measured. Low values mean greater potency, high ones weaker potency. `COc1ccc(Cn2c(=O)c3cc(OCC#N)ccc3n(C3CC[S+]([O-])CC3)c2=O)cc1OC` (single isomer, unassigned; isomer 1) [Compound 17, {[3-(3,4-dimethoxybenzyl)-1-(1-oxidotetrahydro-2H-thiopyran-4-yl)-2,4-dioxo-1,2,3,4-tetrahydroquinazolin-6-yl]oxy}acetonitrile (isomer 1)]: the IC50 in test [1] is 6.1 nM.

On to `Cc1ccc([N+](=O)[O-])cc1S(=O)(=O)N(C)C` [BRL-50481], for which the “apoptosis of CLL-PBMCs” value in test [2] was “induces dose-dependent apoptosis”. In addition, the “effect on the PBMCs of normal individuals” value in test [3] is listed as “no effect”.

On to `COc1ccc(Cn2c(=O)c3cc(OCC#N)ccc3n(C3CCOCC3)c2=O)cc1OC` [Compound 2, {[3-(3,4-dimethoxybenzyl)-2,4-dioxo-1-(tetrahydro-2H-pyran-4-yl)-1,2,3,4-tetrahydroquinazolin-6-yl]oxy}acetonitrile], for which the IC50 in test [1] was found to be 8.9 nM.

In the case of `COc1ccc(Cn2c(=O)c3cc(OCC#N)ccc3n(C3CCOCC3)c2=O)cn1` [Compound 9, ({3-[(6-methoxypyridin-3-yl)methyl]-2,4-dioxo-1-(tetrahydro-2H-pyran-4-yl)-1,2,3,4-tetrahydroquinazolin-6-yl}oxy)acetonitrile], in test [1], the midpoint of inhibition, the IC50, lay at 16 nM.

Compound `COc1ccc(Cn2c(=O)c3cc(OCC#N)ccc3n(C3CCSCC3)c2=O)cc1OC` [Compound 11, {[3-(3,4-dimethoxybenzyl)-2,4-dioxo-1-(tetrahydro-2H-thiopyran-4-yl)-1,2,3,4-tetrahydroquinazolin-6-yl]oxy}acetonitrile] showed an IC50 in test [1] of 5.5 nM.

Regarding `COc1ccc(Cn2c(=O)c3cc(OCC#N)ccc3n(C3CCS(=O)(=O)CC3)c2=O)cc1OC` [Compound 14, {[3-(3,4-dimethoxybenzyl)-1-(1,1-dioxidotetrahydro-2H-thiopyran-4-yl)-2,4-dioxo-1,2,3,4-tetrahydroquinazolin-6-yl]oxy}acetonitrile], the IC50 in test [1] was 230 nM.

In test [1], `COc1ccc(Cn2c(=O)c3cc(CO)ccc3n(C3CCOCC3)c2=O)cc1OC` [Compound 45, 3-(3,4-dimethoxybenzyl)-6-(hydroxymethyl)-1-(tetrahydro-2H-pyran-4-yl)-quinazoline-2,4(1H,3H)-dione] showed an IC50 of 61 nM.

`COc1ccc(Cn2c(=O)c3cc(CF)ccc3n(C3CCOCC3)c2=O)cc1OC` [Compound 60, 3-(3,4-dimethoxybenzyl)-6-(fluoromethyl)-1-(tetrahydro-2H-pyran-4-yl)-quinazoline-2,4(1H,3H)-dione] had a half-inhibitory concentration (IC50) in test [1] of 12 nM.

In the case of `COc1cc(Cn2c(=O)c3cc(OC(CF)CF)c(F)cc3n(C3CCOCC3)c2=O)ccc1OCc1ccccc1` [Compound 64, 3-[4-(benzyloxy)-3-methoxybenzyl]-6-[(1,3-difluoropropan-2-yl)oxy]-7-fluoro-1-(tetrahydro-2H-pyran-4-yl)quinazoline-2,4(1H,3H)-dione], in test [4], the “inhibition of PDE8” value amounted to 59%.
